In publication PMC5437200, “Ionic liquids for the passive sampling of sulfonamides from water—applicability and selectivity study” (Analytical and Bioanalytical Chemistry, 2017):

Assays:
[1] = design: method as in PMID 22579461; details: cited from earlier work
[2] = octanol-water shake experiment for logKOW and logDOW; assay type: physicochemical; details: for logD: n-octanol/ultrapure water pH 5.6, room temperature, read-out: LogD OW pH 5.6 (exp); for LogK OW (exp): n-octanol/ultrapure water, room temperature
[3] = ionization degrees of sulfonamides in the donor solution (calculated); assay type: physicochemical; details: initial pH 5.64; calculated using equations in ref 39
[4] = stability (recovery) of ionic liquids inside the PASSIL dosimeter; assay type: physicochemical; details: PES membranes, 14-day passive sampling, 20 °C; from IL mass before and after
Protocol: Passive sampling experiments were conducted analogously to previous studies. The passive dosimeter was made of plexiglass and contained two polyethersulfone (PES) membranes with their inner sides covered with the receiving phase—ionic liquid (separately for each of the seven tested ILs) of a total mass equal to 200 mg. Nylon (Phenomenex) and Teflon (Merck) membranes were also tested. The donor phase was 100 mL of water solution with an initial sulfonamide concentration of 2 μg mL^−1. The experimental setup was kept away from light radiation and at a constant temperature (20 °C). Each extraction lasted 14 days and the samples (1 mL) of the donor solution were collected every 2 days. The solution was stirred using a magnetic stirrer (1000 rpm), which was not renewed. After the experiment, the receiving phase was dissolved using 50 mL of acetonitrile. All the obtained samples (both from the donor and receiving phases) were analyzed by HPLC with a diode-array detector (DAD, Schimadzu, 272 nm). The analysis was performed using a Gemini 5-μm C18 column (Phenomenex). The injection volume was 10 μL. The flow rate was 1.5 mL min^−1. Acetonitrile (ACN) was used as the organic component of the mobile phase, and the aqueous component was an acetate buffer (5 mmol L^−1 CH3COONH4, pH = 4) with 5% of ACN. The mobile phase gradient was applied. The recovery of the receiving phase, the extraction efficiency, and the sampling rate (for [P666-14][N(CN)2]) were calculated for each analyte according to the equations presented in [30]. Moreover, micrographs using a HITACHI S-3400N scanning electron microscope (SEM) were taken to study the morphological appearance of the membranes covered with an ionic liquid [P666-14][N(CN)2].
The basic parameter of an applied ionic liquid is its physical stability inside the homemade dosimeter expressed by the IL recovery (%) calculated from the difference between ionic liquid masses before and after the passive sampling. The highest recovery (more than 90%) of ionic liquids was achieved by phosphonium-cation-based ILs and PES membranes (Fig. 3). […]

Row | logD [2] | LogK OW (exp) [2] | α2 ionization degree [3] | α3 ionization degree (negatively charged form) [3] | Compound | pKa2 [1] | pKa3 [1] | IL recovery [4]
1 | 0 | 0.36 | 100.0% | 58.0% | Nc1ccc(S(=O)(=O)Nc2ccc(Cl)nn2)cc1 [SCP, sulfachloropyridazine] | 2.2 | 5.5 | 
2 |  |  | 99.9% | 35.5% | COc1cc(NS(=O)(=O)c2ccc(N)cc2)nc(OC)n1 [SDX, sulfadimethoxine] | 2.5 | 5.9 | 
3 |  |  |  |  | Nc1ccc(S(=O)(=O)Nc2ncccn2)cc1 [SDZ, sulfadiazine] | 1.8 |  | 
4 | -0.34 | 0.01 | 100.0% | 58.0% | Cc1nnc(NS(=O)(=O)c2ccc(N)cc2)s1 [SMT, sulfamethiazole] | 1.8 | 5.5 | 
5 | 0.16 | 0.19 | 100.0% | 6.5% | Cc1ccnc(NS(=O)(=O)c2ccc(N)cc2)n1 [SMZ, sulfamerazine] | 1.8 | 6.8 | 
6 | 0.04 | 0.04 | 99.9% |  | Nc1ccc(S(=O)(=O)Nc2ccccn2)cc1 [SPD, sulfapyridine] | 2.4 | 8.2 | 
7 | -0.17 | −0.16 | 100.0% | 3.4% | Nc1ccc(S(=O)(=O)Nc2nccs2)cc1 [STZ, sulfathiazole] | 2.1 | 7.1 | 
8 |  |  |  |  | CCCCCCCCCCCCCC[P+](CCCCCC)(CCCCCC)CCCCCC.FC(F)(F)C(F)(F)[P-](F)(F)(F)(C(F)(F)C(F)(F)F)C(F)(F)C(F)(F)F [[P666-14][(C2F5)3PF3], trihexyl(tetradecyl)phosphonium tri(pentafluoroethyl)trifluorophosphate] |  |  | 98.5%
9 |  |  |  |  | CCCCCCCCCCCCCC[P+](CCCCCC)(CCCCCC)CCCCCC.N#C[N-]C#N [[P666-14][N(CN)2], trihexyl(tetradecyl)phosphonium dicyanamide] |  |  | 92.4%
10 |  |  |  |  | CCCCCCCCCCCCCC[P+](CCCCCC)(CCCCCC)CCCCCC.O=S(=O)([N-]S(=O)(=O)C(F)(F)F)C(F)(F)F [[P666-14][TFN], trihexyl(tetradecyl)phosphonium bis(trifluoromethylsulfonyl)imide] |  |  | 98.9%
